Reference: patent publication US20110034424A1, “METHOD FOR THE LONG TERM NSAID USE” (SUCAMPO AG, priority 2009, published 2011)

What was measured:
[1] = tested on: patients with osteoarthritis and/or rheumatoid arthritis; assay: 12-week double-blinded, randomized, dose-ranging, placebo-controlled phase 2 trial of cobiprostone with naproxen; assay type: in vivo, human; settings: for Drug-related gastrointestinal adverse event rate / Median number of days in the treatment period / Related adverse event: diarrhea / Related adverse event: gastritis / Related adverse event: nausea / Related overall adverse event rate / Withdrawal rate from the trial due to an adverse event / Retention rate at Week 8 / Retention rate at Week 12: naproxen 500 mg twice a day
Experimental: A total of 124 patients with osteoarthritis and/or rheumatoid arthritis were enrolled in 12-week, double-blinded, randomized, dose-ranging and placebo-controlled phase 2 trial. All patients in the trial received 500 mg of naproxen twice a day. There were four treatment cohorts: one cohort received placebo while the other three cohorts received 18 mcg of cobiprostone either once, twice or three times a day (daily totals of 18, 36 or 54 mcg, respectively).
Retention rate and withdrawal rate were evaluated by the following definitions.
Retention rate: The number of intent-to-treat subjects that remained in the trial at a specified week.
Withdrawal Rate: The number of randomized subjects that discontinued the trial. The reasons for discontinuation were:
b. Discontinued due to ulcer
The withdrawal rate can be expressed/calculated for a single reason such as adverse events, or for any combination of the discontinuation reasons.

[2] = tested on: ulcers induced by indomethacin and by stress; settings: cited from earlier work

CC[C@H](C)CC(F)(F)[C@@]1(O)CC[C@H]2[C@@H](CC(=O)[C@@H]2CCCCCCC(=O)O)O1 [cobiprostone, 7{(2R,4aR,5R,7aR)-2-[(3S)-1,1-difluoro-3-methylpentyl]-2-hydroxy-6-oxooctahydrocyclopenta[b]pyran-5-yl}heptanoic acid]
Retention rates at Week 12 compared to naproxen with placebo ([1]; Week 12, 18, 36 and 54 mcg/day, dose-dependent increase): statistically significant | Drug-related gastrointestinal adverse event rate ([1]; cobiprostone 18 mcg/day): 60.0% | Median number of days in the treatment period ([1]; cobiprostone 18 mcg/day): 60.0 days | Related adverse event: diarrhea ([1]; cobiprostone 18 mcg/day): 13.3% | Related adverse event: gastritis ([1]; cobiprostone 18 mcg/day): 13.3% | Related adverse event: nausea ([1]; cobiprostone 18 mcg/day): 10.0% | Related overall adverse event rate ([1]; cobiprostone 18 mcg/day): 60.0% | Withdrawal rate from the trial due to an adverse event ([1]; cobiprostone 18 mcg/day): 13.3% | Retention rate at Week 8 ([1]; cobiprostone 18 mcg/day): 67% | Retention rate at Week 12 ([1]; cobiprostone 18 mcg/day, Week 12): 47% | Drug-related gastrointestinal adverse event rate ([1]; cobiprostone 36 mcg/day): 67.7% | Median number of days in the treatment period ([1]; cobiprostone 36 mcg/day): 82.0 days | Related adverse event: diarrhea ([1]; cobiprostone 36 mcg/day): 32.3% | Related adverse event: gastritis ([1]; cobiprostone 36 mcg/day): 6.5% | Related adverse event: nausea ([1]; cobiprostone 36 mcg/day): 16.1% | Related overall adverse event rate ([1]; cobiprostone 36 mcg/day): 71.0% | Withdrawal rate from the trial due to an adverse event ([1]; cobiprostone 36 mcg/day): 16.1% | Retention rate at Week 8 ([1]; cobiprostone 36 mcg/day): 66% | Retention rate at Week 12 ([1]; cobiprostone 36 mcg/day, Week 12): 52% | Drug-related gastrointestinal adverse event rate ([1]; cobiprostone 54 mcg/day): 67.7% | Median number of days in the treatment period ([1]; cobiprostone 54 mcg/day): 83.0 days | Related adverse event: diarrhea ([1]; cobiprostone 54 mcg/day): 35.5% | Related adverse event: gastritis ([1]; cobiprostone 54 mcg/day): 9.7% | Related adverse event: nausea ([1]; cobiprostone 54 mcg/day): 16.1% | Related overall adverse event rate ([1]; cobiprostone 54 mcg/day): 67.7% | Withdrawal rate from the trial due to an adverse event ([1]; cobiprostone 54 mcg/day): 16.1% | Retention rate at Week 8 ([1]; cobiprostone 54 mcg/day): 90% | Retention rate at Week 12 ([1]; cobiprostone 54 mcg/day, Week 12): 77% | Tolerability in patients receiving NSAID therapy ([1]; overall, 18-54 mcg/day with naproxen 500 mg twice a day): well tolerated | Formation of ulcers induced by indomethacin ([2]; animal studies, indomethacin-induced ulcers): protected against formation of ulcers | Formation of ulcers induced by stress ([2]; animal studies, stress-induced ulcers): protected against formation of ulcers | Safety in animal studies [2]: acceptable safety
